# Test results published in patent publication US12637471B2, “Heterocyclic compounds, compositions, methods of preparation and uses thereof” (Organon R&D Finland Ltd, priority 2021, dated 2026).
# Assays:
# Format in all cases: biochemical
# [1] = target: T1, Recombinant human aldo-keto reductase family 1 member C2 (AKR1C2) protein (Homo sapiens, UniProt P52895); experiment: Inhibition of the aldo-keto reductase family 1 member C2, 3H-dihydrotestosterone conversion; conditions: inhibitor at 10 μM
# T1 construct: made in house; host or cells: Sf-9 insect cells (baculovirus)
# T1 sequence (P52895 1-323): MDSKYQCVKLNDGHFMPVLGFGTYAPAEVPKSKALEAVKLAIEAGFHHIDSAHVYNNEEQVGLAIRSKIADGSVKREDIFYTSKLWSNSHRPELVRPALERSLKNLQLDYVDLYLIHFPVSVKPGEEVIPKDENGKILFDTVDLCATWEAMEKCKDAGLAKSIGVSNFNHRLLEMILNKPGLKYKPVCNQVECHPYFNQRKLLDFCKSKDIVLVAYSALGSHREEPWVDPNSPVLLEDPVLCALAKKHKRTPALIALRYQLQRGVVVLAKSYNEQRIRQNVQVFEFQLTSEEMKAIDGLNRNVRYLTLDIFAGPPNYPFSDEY
# Method in brief: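 Sf-9-expressed enzyme (13.6 nM) incubated 45 min at 37 °C in 20 mM KH2PO4 pH 7.4 with 1 mM NADPH, 6.25 nM [3H]dihydrotestosterone and 10 μM compound (1% DMSO). After TCA stop, substrate and 5α-androstane-3α,17β-diol resolved by UPLC with radio-detection; inhibition from percent conversion.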
# [2] = target: T2, Recombinant human AKR1C3 (17β-HSD5) protein (Homo sapiens, UniProt P42330); experiment: Inhibition of AKR1C3 (17β-hydroxysteroid dehydrogenase type 5) enzyme, fluorescence assay; conditions: inhibitor at 500 nM
# T2 construct: made in house; host or cells: E. coli
# T2 sequence (P42330 1-323): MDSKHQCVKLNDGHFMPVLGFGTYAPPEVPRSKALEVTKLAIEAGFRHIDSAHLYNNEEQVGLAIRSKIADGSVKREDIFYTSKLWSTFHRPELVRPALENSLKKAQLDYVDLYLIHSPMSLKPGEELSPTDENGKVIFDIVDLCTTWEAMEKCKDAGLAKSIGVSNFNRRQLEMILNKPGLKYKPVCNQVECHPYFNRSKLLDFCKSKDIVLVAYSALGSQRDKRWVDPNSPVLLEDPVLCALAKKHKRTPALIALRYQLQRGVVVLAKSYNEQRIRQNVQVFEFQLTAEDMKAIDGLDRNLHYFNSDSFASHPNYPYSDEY
# Method in brief: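 E. coli-expressed human AKR1C3 (27 nM) in 20 mM KH2PO4, 1 mM EDTA, pH 7.4, with 1 μM pyranoquinolinone ketone substrate, 1 mM NADPH and inhibitor at 500 nM, 1% DMSO, 60–120 min at RT. Fluorescent alcohol product (ex 420/em 510 nm) quantified against standards; inhibition derived from conversion percentages.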
# [3] = target: T3, 17β-Hydroxysteroid Dehydrogenase Type 2 Enzyme (17β-HSD2) (Homo sapiens, UniProt P37059); experiment: Inhibition of the 17β-hydroxysteroid dehydrogenase type 2 enzyme, 3H-testosterone conversion; conditions: inhibitor at 10 μM
# T3 construct: made in house; host or cells: Sf-9 insect cells (baculovirus)
# T3 sequence (P37059 1-387): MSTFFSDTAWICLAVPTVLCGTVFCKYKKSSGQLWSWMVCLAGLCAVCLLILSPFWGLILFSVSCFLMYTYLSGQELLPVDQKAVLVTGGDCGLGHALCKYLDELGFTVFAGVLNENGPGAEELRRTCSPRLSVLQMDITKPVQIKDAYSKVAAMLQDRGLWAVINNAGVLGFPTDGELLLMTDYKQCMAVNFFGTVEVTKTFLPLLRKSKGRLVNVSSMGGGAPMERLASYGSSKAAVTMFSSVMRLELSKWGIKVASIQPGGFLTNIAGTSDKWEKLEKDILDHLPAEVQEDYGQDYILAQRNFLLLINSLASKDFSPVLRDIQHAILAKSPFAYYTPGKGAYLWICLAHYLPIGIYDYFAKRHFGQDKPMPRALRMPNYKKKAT
# Method in brief: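 Recombinant human 17β-HSD2 (Sf-9/baculovirus; 105 nM) incubated with 56.25 nM ³H-testosterone and 1 mM NAD in 20 mM KH2PO4 pH 8.5, 1 mM EDTA, 1% DMSO, 30 min at RT, inhibitor 10 μM. Reaction stopped with TCA; conversion to ³H-androstenedione by radio-UPLC gives percent inhibition.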
inhibition at 10 µM [1],inhibition at 0.5 µM [2],inhibition at 10 µM [3],SMILES
19%,97%,13%,"N#CC(=C1CCN(C(=O)N2CCn3cncc3C2)CC1)c1cc(F)cc(F)c1 [Compound 52, 2-(3,5-difluorophenyl)-2-(1-(5,6,7,8-tetrahydroimidazo[1,5-a]pyrazine-7-carbonyl)piperidin-4-ylidene)acetonitrile]"
7%,97%,15%,"N#CC(=C1CCN(C(=O)N2CCC(CO)CC2)CC1)c1ccc(OC(F)(F)F)cc1 [Compound 53, 2-(1-(4-(hydroxymethyl)piperidine-1-carbonyl)piperidin-4-ylidene)-2-(4-(trifluoromethoxy)phenyl)acetonitrile]"
15%,99%,20%,"N#CC(=C1CCN(C(=O)N2CCc3[nH]ncc3C2)CC1)c1ccc(OC(F)(F)F)cc1 [Compound 54, 2-(1-(4,5,6,7-tetrahydro-1H-pyrazolo[4,3-c]pyridine-5-carbonyl)piperidin-4-ylidene)-2-(4-(trifluoromethoxy)phenyl)acetonitrile]"
3%,97%,7%,"N#CC(=C1CCN(C(=O)N2CCn3cncc3C2)CC1)c1ccc(OC(F)(F)F)cc1 [Compound 55, 2-(1-(5,6,7,8-tetrahydroimidazo[1,5-a]pyrazine-7-carbonyl)piperidin-4-ylidene)-2-(4-(trifluoromethoxy)phenyl)acetonitrile]"
-3%,86%,3%,"N#CC(=C1CCN(C(=O)N2CCC(O)CC2)CC1)c1cccc2cn[nH]c12 [Compound 56, 2-(1-(4-hydroxypiperidine-1-carbonyl)piperidin-4-ylidene)-2-(1H-indazol-7-yl)acetonitrile]"
13%,96%,3%,"N#CC(=C1CCN(C(=O)N2CCC(O)CC2)CC1)c1ccc(Cl)s1 [Compound 57, 2-(5-chlorothiophen-2-yl)-2-(1-(4-hydroxypiperidine-1-carbonyl)piperidin-4-ylidene)acetonitrile]"
5%,98%,22%,"Cn1ncc2cccc(C(C#N)=C3CCN(C(=O)N4CCn5cncc5C4)CC3)c21 [Compound 59, 2-(1-methyl-1H-indazol-7-yl)-2-(1-(5,6,7,8-tetrahydroimidazo[1,5-a]pyrazine-7-carbonyl)piperidin-4-ylidene)acetonitrile]"
-4%,90%,4%,"N#CC(=C1CCN(C(=O)N2CCC(O)CC2)CC1)c1ccc(Cl)cn1 [Compound 62, 2-(5-chloropyridin-2-yl)-2-(1-(4-hydroxypiperidine-1-carbonyl)piperidin-4-ylidene)acetonitrile]"
29%,99%,22%,"N#CC(=C1CCN(C(=O)N2CCC(CO)CC2)CC1)c1ccc(Cl)s1 [Compound 63, 2-(5-chlorothiophen-2-yl)-2-(1-(4-(hydroxymethyl)piperidine-1-carbonyl)piperidin-4-ylidene)acetonitrile]"
2%,97%,2%,"N#CC(=C1CCN(C(=O)N2CCC(CO)CC2)CC1)c1ccc(Cl)cn1 [Compound 65, 2-(5-chloropyridin-2-yl)-2-(1-(4-(hydroxymethyl)piperidine-1-carbonyl)piperidin-4-ylidene)acetonitrile]"
8%,96%,12%,"N#CC(=C1CCN(C(=O)N2CCc3sccc3C2)CC1)c1ccc(Cl)cn1 [Compound 66, 2-(5-chloropyridin-2-yl)-2-(1-(4,5,6,7-tetrahydrothieno[3,2-c]pyridine-5-carbonyl)piperidin-4-ylidene)acetonitrile]"
11%,98%,8%,"N#CC(=C1CCN(C(=O)N2CCn3cncc3C2)CC1)c1ccc(Cl)cn1 [Compound 68, 2-(5-chloropyridin-2-yl)-2-(1-(5,6,7,8-tetrahydroimidazo[1,5-a]pyrazine-7-carbonyl)piperidin-4-ylidene)acetonitrile]"

# The next lines start with the compound.
SMILES,inhibition at 10 µM [1],inhibition at 0.5 µM [2],inhibition at 10 µM [3]
"N#CC(=C1CCN(C(=O)N2CCC(CO)CC2)CC1)c1cc(F)cc(F)c1 [Compound 50, 2-(3,5-difluorophenyl)-2-(1-(4-(hydroxymethyl)piperidine-1-carbonyl)piperidin-4-ylidene)acetonitrile]",16%,97%,12%
"N#CC(=C1CCN(C(=O)N2CCc3sccc3C2)CC1)c1cc(F)cc(F)c1 [Compound 51, 2-(3,5-difluorophenyl)-2-(1-(4,5,6,7-tetrahydrothieno[3,2-c]pyridine-5-carbonyl)piperidin-4-ylidene)acetonitrile]",18%,96%,26%
"N#CC(=C1CCN(C(=O)N2CCC(O)CC2)CC1)c1cc(F)cc(F)c1 [Compound 58, 2-(3,5-difluorophenyl)-2-(1-(4-hydroxypiperidine-1-carbonyl)piperidin-4-ylidene)acetonitrile]",6%,93%,21%
"N#CC(=C1CCN(C(=O)N2CCc3[nH]ncc3C2)CC1)c1cccc2[nH]ncc12 [Compound 60, 2-(1H-indazol-4-yl)-2-(1-(4,5,6,7-tetrahydro-1H-pyrazolo[4,3-c]pyridine-5-carbonyl)piperidin-4-ylidene)acetonitrile]",9%,98%,29%
"N#CC(=C1CCN(C(=O)N2CCn3cncc3C2)CC1)c1cccc2[nH]ncc12 [Compound 61, 2-(1H-indazol-4-yl)-2-(1-(5,6,7,8-tetrahydroimidazo[1,5-a]pyrazine-7-carbonyl)piperidin-4-ylidene)acetonitrile]",7%,99%,30%
"N#CC(=C1CCN(C(=O)N2CCc3sccc3C2)CC1)c1ccc(Cl)s1 [Compound 64, 2-(5-chlorothiophen-2-yl)-2-(1-(4,5,6,7-tetrahydrothieno[3,2-c]pyridine-5-carbonyl)piperidin-4-ylidene)acetonitrile]",19%,99%,28%
"N#CC(=C1CCN(C(=O)N2CCc3[nH]ncc3C2)CC1)c1ccc(Cl)cn1 [Compound 67, 2-(5-chloropyridin-2-yl)-2-(1-(4,5,6,7-tetrahydro-1H-pyrazolo[4,3-c]pyridine-5-carbonyl)piperidin-4-ylidene)acetonitrile]",6%,98%,9%
"CN(C(=O)N1CCC(=C(C#N)c2ccc(Cl)cc2)CC1)C1CCOCC1 [Compound 69, 4-((4-chlorophenyl)(cyano)methylene)-N-methyl-N-(tetrahydro-2H-pyran-4-yl)piperidine-1-carboxamide]",16%,98%,10%
"N#CC(=C1CCN(C(=O)N2CCC(O)CC2)CC1)c1n[nH]c2ccccc12 [Compound 70, 2-(1-(4-hydroxypiperidine-1-carbonyl)piperidin-4-ylidene)-2-(1H-indazol-3-yl)acetonitrile]",5%,97%,11%
